Reference: patent US20260167623A1 (NIKANG THERAPEUTICS, INC., priority 2022, published 2026)
pIC50: −log10 of the molar value.

How the values were obtained:
[1] = target: T1, CDK2 (Homo sapiens, UniProt P24941); test: High-throughput HTRF measurement of cellular endogenous CDK2 level (degradation, DC50/Dmax) in OVCAR3 cells, 6 h; format: cell-based; settings: 6 h compound treatment, HTRF total CDK2, read-out: DC50_OVCAR3_6h
T1 construct: High-Throughput Measurement of Cellular Endogenous CDK2; endogenous in cells; host or cells: OVCAR3
In short: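 OVCAR3 cells were treated overnight after seeding with compounds at 0.03–1,000 nM for 6 h, then lysed. Total CDK2 was quantified by HTRF (d2- and Eu-cryptate anti-CDK2 antibodies, […] ratio) after overnight incubation at room temperature. Data normalized to DMSO (0%) and lysis buffer (100% degradation); DC50 from four-parameter logistic fit.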

[2] = target: T1, CDK2; test: Inhibition of CDK2: phospho-Rb (S807/811) HTRF measurement in OVCAR3 cells, 24 h; format: cell-based; settings: 24 h compound treatment, read-out: pRB_OVCAR3_24h
In short: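 OVCAR3 cells, seeded overnight, were exposed to compounds at 0.3 to 10,000 nM for 24 h, then lysed. Rb S807/811 phosphorylation read by HTRF (665/620 nm ratio) after 4 h detection at room temperature; data normalized to DMSO and IC50 from four-parameter logistic fit.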

DC50 [1] [nM]	pIC50 [2]	SMILES
1 to 10	7.00 to 9.00	O=C1CCN(c2noc3cc(C4CCN(CC5CCN(c6cccc(S(=O)(=O)N7CCC(Nc8ncc(C(F)(F)F)cn8)CC7)c6)CC5)CC4)ccc23)C(=O)N1 [Example 222, 1-(6-(1-((1-(3-((4-((5-(trifluoromethyl)pyrimidin-2-yl)amino)piperidin-1-yl)sulfonyl)phenyl)piperidin-4-yl)methyl)piperidin-4-yl)benzo[d]isoxazol-3-yl)dihydropyrimidine-2,4(1H,3H)-dione]
10 to 100	7.00 to 9.00	Cn1nc(N2CCC(=O)NC2=O)c2ccc(C3CCC(CN4CCN(c5cccc(S(=O)(=O)N6CCC(Nc7ncc(Cl)cn7)CC6)c5)CC4)CC3)cc21 (centres unmarked) [Example 224, 1-(6-(4-((4-(3-((4-((5-chloropyrimidin-2-yl)amino)piperidin-1-yl)sulfonyl)phenyl)piperazin-1-yl)methyl)cyclohexyl)-1-methyl-1H-indazol-3-yl)dihydropyrimidine-2,4(1H,3H)-dione]
1 to 10	7.00 to 9.00	O=C1CCC(N2Cc3cc(C4CCN(CC5CCN(c6cccc(S(=O)(=O)N7CCC(Nc8ncc(C(F)(F)F)cn8)CC7)c6)CC5)CC4)c(F)cc3C2=O)C(=O)N1 (centres unmarked) [Example 119, 3-(6-fluoro-1-oxo-5-(1-((1-(3-((4-((5-(trifluoromethyl)pyrimidin-2-yl)amino)-piperidin-1-yl)sulfonyl)phenyl)piperidin-4-yl)methyl)piperidin-4-yl)isoindolin-2-yl)piperidine-2,6-dione]
1 to 10	7.00 to 9.00	Cn1nc(N2CCC(=O)NC2=O)c2ccc(C3CCN(CC4CCN(c5cccc(S(=O)(=O)N6CCC(Nc7ncc(Br)cn7)CC6)c5)CC4)CC3)cc21 [Example 199, 1-(6-(1-((1-(3-((4-((5-bromopyrimidin-2-yl)amino)piperidin-1-yl)sulfonyl)phenyl)piperidin-4-yl)methyl)piperidin-4-yl)-1-methyl-1H-indazol-3-yl)dihydropyrimidine-2,4(1H,3H)-dione]
1 to 10	7.00 to 9.00	Cn1c(=O)n(C2CCC(=O)NC2=O)c2ccc(C3CCN(CC4CCN(c5cc(S(=O)(=O)N6CCC(Nc7ncc(Cl)cn7)CC6)ccc5C#N)CC4)CC3)cc21 (centres unmarked) [Example 204, 4-((4-((5-chloropyrimidin-2-yl)amino)piperidin-1-yl)sulfonyl)-2-(4-((4-(1-(2,6-dioxopiperidin-3-yl)-3-methyl-2-oxo-2,3-dihydro-1H-benzo[d]imidazol-5-yl)piperidin-1-yl)methyl)piperidin-1-yl)benzonitrile]
1 to 10	7.00 to 9.00	Cn1c(=O)n(C2CCC(=O)NC2=O)c2cccc(C3CCN(CC4CCN(c5cc(S(=O)(=O)N6CCC(Nc7ncc(C(F)(F)F)cn7)CC6)ccc5C#N)CC4)CC3)c21 (centres unmarked) [Example 181, 2-(4-((4-(1-(2,6-dioxopiperidin-3-yl)-3-methyl-2-oxo-2,3-dihydro-1H-benzo[d]imidazol-4-yl)piperidin-1-yl)methyl)piperidin-1-yl)-4-((4-((5-(trifluoromethyl)pyrimidin-2-yl)amino)piperidin-1-yl)sulfonyl)benzonitrile]
1000 to 5000	7.00 to 9.00	Cn1nc(-n2ccc(=O)[nH]c2=O)c2ccc(C3CCN(CC4CCN(c5cccc(S(=O)(=O)N6CCC(Nc7ncc(C(F)(F)F)cn7)CC6)c5)CC4)CC3)cc21 [Example 211, 1-(1-methyl-6-(1-((1-(3-((4-((5-(trifluoromethyl)pyrimidin-2-yl)amino)piperidin-1-yl)sulfonyl)phenyl)piperidin-4-yl)methyl)piperidin-4-yl)-1H-indazol-3-yl)pyrimidine-2,4(1H,3H)-dione]
10 to 100	7.00 to 9.00	Cn1nc(N2CCC(=O)NC2=O)c2ccc(C3CCN(CC4(C)CCN(c5cccc(S(=O)(=O)N6CCC(Nc7ncc(Cl)cn7)CC6)c5)CC4)CC3)cc21 [Example 206, 1-(6-(1-((1-(3-((4-((5-chloropyrimidin-2-yl)amino)piperidin-1-yl)sulfonyl)phenyl)-4-methylpiperidin-4-yl)methyl)piperidin-4-yl)-1-methyl-1H-indazol-3-yl)dihydropyrimidine-2,4(1H,3H)-dione]
10 to 100	7.00 to 9.00	Cn1nc(N2CCC(=O)NC2=O)c2ccc(C3CCN(CC4(O)CCN(c5cc(S(=O)(=O)N6CCC(Nc7ncc(Cl)cn7)CC6)ccc5C#N)CC4)CC3)cc21 [Example 214, 4-((4-((5-chloropyrimidin-2-yl)amino)piperidin-1-yl)sulfonyl)-2-(4-((4-(3-(2,4-dioxotetrahydropyrimidin-1(2H)-yl)-1-methyl-1H-indazol-6-yl)piperidin-1-yl)methyl)-4-hydroxypiperidin-1-yl)benzonitrile]
10 to 100	7.00 to 9.00	Cn1nc(N2CCC(=O)NC2=O)c2ccc(C3CCC(CN4CCC(c5cccc(S(=O)(=O)N6CCC(Nc7ncc(C(F)(F)F)cn7)CC6)c5)CC4)CC3)cc21 (centres unmarked) [Example 238, 1-(1-methyl-6-(4-((4-(3-((4-((5-(trifluoromethyl)pyrimidin-2-yl)amino)piperidin-1-yl)sulfonyl)phenyl)piperidin-1-yl)methyl)cyclohexyl)-1H-indazol-3-yl)dihydropyrimidine-2,4(1H,3H)-dione]
10 to 100	6.30 to 7.00	Cn1nc(N2CCC(=O)NC2=O)c2ccc(C3CCN(CC#Cc4cccc(S(=O)(=O)N5CCC(Nc6ncc(Cl)cn6)CC5)c4)CC3)cc21 [Example 226, 1-(6-(1-(3-(3-((4-((5-chloropyrimidin-2-yl)amino)piperidin-1-yl)sulfonyl)phenyl)prop-2-yn-1-yl)piperidin-4-yl)-1-methyl-1H-indazol-3-yl)dihydropyrimidine-2,4(1H,3H)-dione]

The next lines start with the compound.

SMILES	DC50 [1] [nM]	pIC50 [2]
O=C1CCC(N2Cc3cc(N4CCN(Cc5cccc(S(=O)(=O)N6CCC(Nc7ncc(OC(F)F)cn7)CC6)c5)CC4)c(F)cc3C2=O)C(=O)N1 (centres unmarked) [Example 43, 3-(5-(4-(3-((4-((5-(difluoromethoxy)-pyrimidin-2-yl)amino)piperidin-1-yl)sulfonyl)benzyl)piperazin-1-yl)-6-fluoro-1-oxoisoindolin-2-yl)piperidine-2,6-dione]	10 to 100	6.30 to 7.00
O=C1CCC(N2Cc3cc(N4CCC(N5CC(Oc6cccc(S(=O)(=O)N7CCC(Nc8ncc(C(F)(F)F)cn8)CC7)c6)C5)CC4)ccc3C2=O)C(=O)N1 (centres unmarked) [Example 92, 3-(1-oxo-5-(4-(3-(3-((4-((5-(trifluoro-methyl)pyrimidin-2-yl)amino)piperidin-1-yl)sulfonyl)phenoxy)azetidin-1-yl)piperidin-1-yl)isoindolin-2-yl)piperidine-2,6-dione]	1 to 10	6.30 to 7.00
CC(Cc1cccc(S(=O)(=O)N2CCC(Nc3ncc(Cl)cn3)CC2)c1)CN1CCC(c2ccc3c(N4CCC(=O)NC4=O)nn(C)c3c2)CC1 (centres unmarked) [Example 53, 1-(6-(1-(3-(3-((4-((5-chloropyrimidin-2-yl)amino)piperidin-1-yl)sulfonyl)phenyl)-2-methylpropyl)piperidin-4-yl)-1-methyl-1H-indazol-3-yl)dihydropyrimidine-2,4(1H,3H)-dione]	10 to 100	7.00 to 9.00
Cn1nc(N2CCC(=O)NC2=O)c2ccc(C3CCN(CCCc4cccc(S(=O)(=O)N5CCC(Nc6ncc(C(F)(F)F)cn6)CC5)c4)CC3)cc21 [Example 87, 1-(1-methyl-6-(1-(3-(3-((4-((5-(trifluoro-methyl)pyrimidin-2-yl)amino)piperidin-1-yl)sulfonyl)phenyl)propyl)piperidin-4-yl)-1H-indazol-3-yl)dihydropyrimidine-2,4(1H,3H)-dione]	1 to 10	7.00 to 9.00
Cn1nc(N2CCC(=O)NC2=O)c2ccc(C3CCN(CC(C)(C)Cc4cccc(S(=O)(=O)N5CCC(Nc6ncc(Cl)cn6)CC5)c4)CC3)cc21 [Example 54, 1-(6-(1-(3-(3-((4-((5-chloropyrimidin-2-yl)amino)piperidin-1-yl)sulfonyl)phenyl)-2,2-dimethylpropyl)piperidin-4-yl)-1-methyl-1H-indazol-3-yl)dihydropyrimidine-2,4(1H,3H)-dione]	1 to 10	7.00 to 9.00
Cn1nc(N2CCC(=O)NC2=O)c2ccc(C3CCN(Cc4cccc(S(=O)(=O)N5CCC(Nc6ncc(Cl)cn6)CC5)c4)CC3)cc21 [Example 11, 1-(6-(1-(3-((4-((5-chloropyrimidin-2-yl)amino)piperidin-1-yl)sulfonyl)benzyl)-piperidin-4-yl)-1-methyl-1H-indazol-3-yl)dihydropyrimidine-2,4(1H,3H)-dione]	1 to 10	6.30 to 7.00
O=C1CCC(N2Cc3cc(N4CCC(N5CC(Oc6cccc(S(=O)(=O)N7CCC(Nc8ncc(Cl)cn8)CC7)c6)C5)CC4)ccc3C2=O)C(=O)N1 (centres unmarked) [Example 105, 3-(5-(4-(3-(3-((4-((5-chloropyrimidin-2-yl)amino)piperidin-1-yl)sulfonyl)phenoxy)-azetidin-1-yl)piperidin-1-yl)-1-oxoisoindolin-2-yl)piperidine-2,6-dione]	10 to 100	6.30 to 7.00
Cn1nc(N2CCC(=O)NC2=O)c2ccc(C3CCN(CCc4cccc(S(=O)(=O)N5CCC(Nc6ncc(C(F)(F)F)cn6)CC5)c4)CC3)cc21 [Example 6, 1-(1-methyl-6-(1-(3-((4-((5-(trifluoromethyl)pyrimidin-2-yl)amino)-piperidin-1-yl)sulfonyl)phenethyl)piperidin-4-yl)-1H-indazol-3-yl)dihydropyrimidine-2,4(1H,3H)-dione]	100 to 1000	7.00 to 9.00
